Results published in patent publication US10766909B2, “Process for preparing halogenated pyridine derivatives” (Bayer CropScience Aktiengesellschaft, priority 2016, dated 2020).

test: log P by HPLC-MS; format: physicochemical

Row | Structure (SMILES) | chromatographic logP
1 | Fc1ccc(Cl)nc1I [Example 1, 6-chloro-3-fluoro-2-iodopyridine] | 2.53
2 | COC(=O)c1ccc(F)c(I)n1 [Example 2, methyl 5-fluoro-6-iodopyridine-2-carboxylate] | 1.85
3 | Fc1ccc(Br)nc1I [Example 3, 6-bromo-3-fluoro-2-iodopyridine] | 2.67
